From patent US20260297016A1, “THERAPEUTIC COMPOUNDS” (REGENTS OF THE UNIVERSITY OF MINNESOTA, priority 2023, published 2026)

Columns and labels:
human PPARα = target: T1, human PPARα (Homo sapiens, UniProt Q07869); test: Cell-based Luciferase Assay, human PPARα agonist activity (Indigo Biosciences hPPARα IB00111); details: for activation at 0.5 µM: read-out: % PPAR-alpha AGONISM, % at 0.5 μm; for activation at 5 µM: read-out: % PPAR-alpha AGONISM, % at 5 μm; for activation at 50 µM: read-out: % PPAR-alpha AGONISM, % at 50 μm
T1 construct: borders undisclosed
T1 sequence (Q07869 1-468): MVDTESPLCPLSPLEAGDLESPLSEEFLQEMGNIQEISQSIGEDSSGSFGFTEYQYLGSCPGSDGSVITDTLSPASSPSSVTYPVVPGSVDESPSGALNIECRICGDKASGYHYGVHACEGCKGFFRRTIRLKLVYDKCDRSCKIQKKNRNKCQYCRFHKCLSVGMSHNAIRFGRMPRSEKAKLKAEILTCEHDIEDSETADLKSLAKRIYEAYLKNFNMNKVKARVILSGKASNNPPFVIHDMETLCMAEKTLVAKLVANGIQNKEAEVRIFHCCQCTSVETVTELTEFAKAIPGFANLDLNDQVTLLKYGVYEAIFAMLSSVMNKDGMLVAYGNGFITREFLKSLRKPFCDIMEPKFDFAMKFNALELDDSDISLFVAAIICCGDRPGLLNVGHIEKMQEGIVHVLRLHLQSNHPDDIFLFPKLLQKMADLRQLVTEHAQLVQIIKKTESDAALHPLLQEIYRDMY
Excerpt: Cell-based Luciferase Assay. […] Luminescence was quantified using a GloMax Explorer (Promega).

STING = target: T2, STING (Homo sapiens, UniProt Q86WV6, G230A/H232R/R293Q/R71H); test: IRF-Lucia Reporter STING Inhibition Assay (THP-1 Lucia ISG cells); assay type: cell-based; details: 1 μM 2,3-cGAMP, 20 hours
T2 construct: THP-1 Lucia ISG cells (InvivoGen, thpl-isg); host or cells: THP-1 Lucia ISG cells
T2 sequence (Q86WV6 whole entry R71H/G230A/H232R/R293Q): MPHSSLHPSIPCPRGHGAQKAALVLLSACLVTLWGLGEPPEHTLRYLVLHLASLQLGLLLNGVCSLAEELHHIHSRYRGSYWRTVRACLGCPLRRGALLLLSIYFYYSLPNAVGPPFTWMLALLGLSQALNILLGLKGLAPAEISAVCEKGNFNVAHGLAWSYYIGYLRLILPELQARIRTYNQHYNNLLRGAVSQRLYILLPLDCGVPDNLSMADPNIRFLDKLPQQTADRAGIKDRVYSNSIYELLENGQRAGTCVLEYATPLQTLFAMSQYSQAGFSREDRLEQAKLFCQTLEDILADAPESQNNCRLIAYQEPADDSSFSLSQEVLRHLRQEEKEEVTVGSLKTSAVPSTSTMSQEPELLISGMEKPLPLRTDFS
Procedure: IRF-Lucia Reporter STING Inhibition Assay. […] Cells were incubated at 37° C. in a 5% CO2 atmosphere with varying concentrations of test compound for 1.5 hours, followed by treatment with 1 μM 2,3-cGAMP (InvivoGen, tlrl-nacga23-02) and incubated for 20 hours. A 20 μL aliquot of cell suspension was added to 50 μL. QUANTI-Luc™ reagent (InvivoGen, rep-qlc4lg2), and the resulting luminescence is measured by a GloMax Explorer (Promega) with a 0.1 second read time.

SMILES	activation at 0.5 µM (human PPARα) [%]	activation at 5 µM (human PPARα) [%]	activation at 50 µM (human PPARα) [%]	% STING INHIBITION, % at 12.5 μm (STING) [%]	% STING INHIBITION, % at 25 μm (STING) [%]	% STING INHIBITION, % at 50 μm (STING) [%]	PPAR-alpha agonism of the positive control (human PPARα; 90 nM)	cytotoxicity of the positive control (human PPARα; 90 nM)
O=C(O)c1cccc(NCc2ccc(-c3ccc(F)cc3)cc2)c1 [Example 1, 3-(((4′-Fluoro-[1,1′-biphenyl]-4-yl)methyl)amino)benzoic acid]	35.6	125	55.1					
O=C(O)c1cccc(NCc2ccc(-c3ccc(C(F)(F)F)cc3)cc2)c1 [Example 2, 3-(((4′-(Trifluoromethyl)-[1,1′-biphenyl]-4-yl)methyl)amino)benzoic acid]	74.7	103	27.4					
COc1ccc(-c2ccc(CNc3cccc(C(=O)O)c3)cc2)cc1 [Example 3, 3-(((4′-Methoxy-[1,1′-biphenyl]-4-yl)methyl)amino)benzoic acid]	32.9	112	98.3					
O=C(O)c1cccc(NCc2ccc(-c3ccc(C(F)(F)F)cc3)cc2)c1F [Example 4, 2-Fluoro-3-(((4′-(trifluoromethyl)-[1,1′-biphenyl]-4-yl)methyl)amino)benzoic acid]	73.7	120	20.9					
O=C(O)c1cc(NCc2ccc(-c3ccc(C(F)(F)F)cc3)cc2)ccc1F [Example 5, 2-Fluoro-5-(((4′-(trifluoromethyl)-[1,1′-biphenyl]-4-yl)methyl)amino)benzoic acid]	67.4	92.5	54.4					
O=C(O)c1ccc(F)c(NCc2ccc(-c3ccc(C(F)(F)F)cc3)cc2)c1 [Example 7, 4-Fluoro-3-(((4′-(trifluoromethyl)-[1,1′-biphenyl]-4-yl)methyl)amino)benzoic acid]	6.6	98	68.1					
O=C(O)c1cc(F)cc(NCc2ccc(-c3ccccc3)cc2)c1 [Example 8, 3-(([1,1′-Biphenyl]-4-ylmethyl)amino)-5-fluorobenzoic Acid]	17.6	50.3	95.2					
O=C(O)c1cc(F)cc(NCc2ccc(-c3ccc(C(F)(F)F)cc3)cc2O)c1 [Example 9, 3-Fluoro-5-(((3-hydroxy-4′-(trifluoromethyl)-[1,1′-biphenyl]-4-yl)methyl)amino)benzoic Acid]	8	49.6	46.8					
O=C(O)c1cc(F)cc(NCc2cc(Cl)c(-c3ccc(C(F)(F)F)cc3)c(Cl)c2)c1 [Example 10, 3-(((2,6-Dichloro-4′-(trifluoromethyl)-[1,1′-biphenyl]-4-yl)methyl)amino)-5-fluorobenzoic acid]	0	37.2	17.4					
Cc1cc(CNc2cc(F)cc(C(=O)O)c2)ccc1-c1ccc(C(F)(F)F)cc1C [Example 12, 3-(((2,2′-Dimethyl-4′-(trifluoromethyl)-[1,1′-biphenyl]-4-yl)methyl)amino)-5-fluorobenzoic Acid]	14.1	46.3	26.5					
Cc1cc(C(F)(F)F)ccc1-c1ccc(CNc2cc(F)cc(C(=O)O)c2)cc1 [Example 13, 3-Fluoro-5-(((2′-methyl-4′-(trifluoromethyl)-[1,1′-biphenyl]-4-yl)methyl)amino)benzoic Acid]	38.3	47.4	27.5					
N#Cc1ccc(-c2ccc(CNc3cc(F)cc(C(=O)O)c3)cc2)cc1 [Example 14, 3-(((4′-Cyano-[1,1′-biphenyl]-4-yl)methyl)amino)-5-fluorobenzoic Acid]	7	58.7	83.8					
COc1ccc(-c2ccc(CNc3cc(F)cc(C(=O)O)c3)cc2)cc1 [Example 16, 3-Fluoro-5-(((4′-methoxy-[1,1′-biphenyl]-4-yl)methyl)amino)benzoic acid]	38.2	106	96					

Further lines, with some results ahead:

activation at 0.5 µM (human PPARα) [%]	activation at 5 µM (human PPARα) [%]	activation at 50 µM (human PPARα) [%]	% STING INHIBITION, % at 12.5 μm (STING) [%]	% STING INHIBITION, % at 25 μm (STING) [%]	% STING INHIBITION, % at 50 μm (STING) [%]	PPAR-alpha agonism of the positive control (human PPARα; 90 nM)	SMILES	cytotoxicity of the positive control (human PPARα; 90 nM)
38.6	80	87.8					O=C(O)c1cc(F)cc(NCc2ccc(-c3ccc(Cl)cc3)cc2)c1 [Example 18, 3-(((4′-Chloro-[1,1′-biphenyl]-4-yl)methyl)amino)-5-fluorobenzoic acid]	
40.6	101	98.9					Cc1ccc(-c2ccc(CNc3cc(F)cc(C(=O)O)c3)cc2)cc1 [Example 19, 3-Fluoro-5-(((4′-methyl-[1,1′-biphenyl]-4-yl)methyl)amino)benzoic acid]	
38.2	58.5	48					O=C(O)c1cc(F)cc(NCc2ccc(-c3ccc(C4CCCC4)cc3)cc2)c1 [Example 20, 3-(((4′-Cyclopentyl-[1,1′-biphenyl]-4-yl)methyl)amino)-5-fluorobenzoic acid]	
22.1	62.2	42.1					O=C(O)c1cc(F)cc(NCc2ccc(-c3ccc(C(F)(F)F)cc3)cn2)c1 [Example 22, 3-Fluoro-5-(((5-(4-(trifluoromethyl)phenyl)pyridin-2-yl)methyl)amino)benzoic Acid]	
15.7	83.3	74.9					O=C(O)c1cc(F)cc(NCc2cnc(-c3ccc(C(F)(F)F)cc3)s2)c1 [Example 24, 3-fluoro-5-(((2-(4-(trifluoromethyl)phenyl)thiazol-5-yl)methyl)amino)benzoic Acid]	
21.7	88.7	42.4					O=C(O)c1cc(F)cc(NCc2csc(-c3ccc(C(F)(F)F)cc3)n2)c1 [Example 25, 3-fluoro-5-(((2-(4-(trifluoromethyl)phenyl)thiazol-4-yl)methyl)amino)benzoic Acid]	
10.6	14.2	50					O=C(O)c1cc(F)cc(NCc2csc(-c3ccc(F)cc3)n2)c1 [Example 26, 3-fluoro-5-(((2-(4-fluorophenyl)thiazol-4-yl)methyl)amino)benzoic Acid]	
51.1	94.3	58.5					O=C(O)c1cccc(NCc2cn(-c3ccc(C(F)(F)F)cc3)nn2)c1 [Example 27, 3-(((1-(4-(trifluoromethyl)phenyl)-1H-1,2,3-triazol-4-yl)methyl)amino)benzoic Acid]	
13.1	21.5	58.6					O=C(O)c1cccc(NCc2cn(-c3ccc(F)cc3)nn2)c1 [Example 28, 3-(((1-(4-fluorophenyl)-1H-1,2,3-triazol-4-yl)methyl)amino)benzoic Acid]	
27	139	91					O=C(O)c1cc(F)cc(NCc2cn(-c3ccc(C(F)(F)F)cc3)nn2)c1 [Example 29, 3-fluoro-5-(((1-(4-(trifluoromethyl)phenyl)-1H-1,2,3-triazol-4-yl)methyl)amino)benzoic Acid]	
9.6	19.1	48.8					O=C(O)c1cc(F)cc(NCc2cn(-c3ccc(F)cc3)nn2)c1 [Example 30, 3-fluoro-5-(((1-(4-fluorophenyl)-1H-1,2,3-triazol-4-yl)methyl)amino)benzoic Acid]	
			28	43	64		O=C(O)c1cc(NCc2ccc(-c3ccc(C(F)(F)F)cc3)cc2)ccc1O [Example 32, 2-hydroxy-5-(((4′-(trifluoromethyl)-[1,1′-biphenyl]-4-yl)methyl)amino)benzoic acid]	
			0	0	0		COc1ccc(-c2ccc(CNc3ccc(O)c(C(=O)O)c3)cc2)cc1 [Example 33]	
			0	0	0		CS(=O)(=O)c1ccc(-c2ccc(CNc3ccc(O)c(C(=O)O)c3)cc2)cc1 [Example 34, 2-Hydroxy-5-(((4′-(methylsulfonyl)-[1,1′-biphenyl]-4-yl)methyl)amino)benzoic acid]	
			0	0	0		O=C(O)c1cc(NCc2ccc(-c3ccc(O)cc3)cc2)ccc1O [Example 35, 2-Hydroxy-5-(((4′-hydroxy-[1,1′-biphenyl]-4-yl)methyl)amino)benzoic acid]	
						full agonism	CC(C)(Sc1ccc(CCN(CCCCC2CCCCC2)C(=O)NC2CCCCC2)cc1)C(=O)O [GW7647, reference compound]	without signs of cytotoxicity
